In the Biogen ADME set (Fang et al. 2023):
Converted amounts (≈) assume the structure as drawn.

Settings: for aqueous solubility: pH 6.8

SMILES | MDR1-MDCK efflux ratio | intrinsic clearance, human liver microsomes | intrinsic clearance, rat liver microsomes | aqueous solubility | fraction unbound, human plasma | fraction unbound, rat plasma
CCc1c(-c2ccccc2)[n+]([O-])c2c([n+]1[O-])CCCCC2 | 2.95 | 8.95 mL/min/kg | 43.4 mL/min/kg | – | – | –
CCc1cc(=O)[nH]c(SCCN2CCCCC2)n1 | 3.43 | ≤ 4.74 mL/min/kg | 441 mL/min/kg | – | – | –
Cc1noc(C)c1CS(=O)(=O)Cc1cccc2c1OCCO2 | 2.46 | 39.8 mL/min/kg | 2290 mL/min/kg | 53.3 µg/mL (≈ 165 µM) | – | –
O=C1C(N2CCC(n3c(=O)[nH]c4ccccc43)CC2)CCN1c1ccccc1 (centres undefined) | – | 4.86 mL/min/kg | 139 mL/min/kg | 62 µg/mL (≈ 165 µM) | – | –
N#Cc1ccnc(Nc2cc(C3CCN(C4COC4)CC3)cc(N3CCC(F)(F)C3)n2)c1 | 1.85 | – | – | 0.71 µg/mL (≈ 1.61 µM) | – | –
O=C(Cn1nc2n(c1=O)-c1ccccc1C1=NCCN12)N1CCc2ccccc21 | 22.4 | – | – | 5.79 µg/mL (≈ 15 µM) | – | –
CC1(C)CCN(C(=O)NCCOc2cccnc2)C1 | 3.33 | ≤ 4.74 mL/min/kg | 47.9 mL/min/kg | 39.8 µg/mL (≈ 151 µM) | – | –
CNc1nc(C2CCNCC2)nc2c1CN(C)CC2 | – | 9.51 mL/min/kg | 29.1 mL/min/kg | 36.2 µg/mL (≈ 139 µM) | – | –
O=C(NC[C@H]1COCc2nc3ccccc3n21)c1ccncc1 | 23.9 | 18.9 mL/min/kg | 131 mL/min/kg | 52.1 µg/mL (≈ 169 µM) | – | –
CC(C)n1nccc1-c1ncccc1COc1cccc(O)c1C=O | – | 150 mL/min/kg | 716 mL/min/kg | 37.9 µg/mL (≈ 112 µM) | – | –
COc1ccc(-c2cn3c4ccccc4nc3n2CCO)cc1 | 0.389 | 42.2 mL/min/kg | 1190 mL/min/kg | 47 µg/mL (≈ 153 µM) | – | –
O=C(NCCN1CCC(n2c(=O)[nH]c3cc(Cl)ccc32)CC1)c1ccc(F)cc1 | – | 60.9 mL/min/kg | 373 mL/min/kg | – | – | –
COc1ccc(/C=C/C(=O)c2c(C)nc3ccccc3c2N)c(OC)c1 | – | 43.4 mL/min/kg | 814 mL/min/kg | 40.6 µg/mL (≈ 117 µM) | – | –
Cc1cnn(Cc2nnc(-c3ccccc3)s2)c1 | 0.554 | 44 mL/min/kg | 449 mL/min/kg | 22.5 µg/mL (≈ 87.8 µM) | – | –
Cc1cn(-c2cc(NC(=O)c3ccc(C)c(Nc4nccc(-c5cccnc5)n4)c3)cc(C(F)(F)F)c2)cn1 | 8.9 | – | – | – | – | –
O=C1Nc2ccccc2O[C@H]2C[C@@H]1N(Cc1cccnc1)C2 | 17.7 | 12.7 mL/min/kg | 281 mL/min/kg | 94.3 µg/mL (≈ 319 µM) | – | –
CC(=O)N1CCC(Cn2ccnc2-c2cc3ccccc3s2)CC1 | 14 | 46.5 mL/min/kg | 357 mL/min/kg | 35.2 µg/mL (≈ 104 µM) | – | –
CC(=O)N1CCC(c2ccc(C(=O)O)cn2)CC1 | – | ≤ 4.74 mL/min/kg | ≤ 10.7 mL/min/kg | 50.6 µg/mL (≈ 204 µM) | – | –
Cc1nnnn1CCCc1ccccc1 | – | – | – | 5.67 µg/mL (≈ 28 µM) | – | –
O=C(Cc1ccc2c(c1)CCC2)Nc1nc2ccccc2o1 | 0.499 | 113 mL/min/kg | 1540 mL/min/kg | 3.63 µg/mL (≈ 12.4 µM) | – | –

SMILES | MDR1-MDCK efflux ratio | intrinsic clearance, human liver microsomes | intrinsic clearance, rat liver microsomes | aqueous solubility | fraction unbound, human plasma | fraction unbound, rat plasma
Cc1cccc(Nc2ccc(C3CCN(C(=O)c4cc5cc(F)ccc5n4C)CC3)nc2)n1 | 1.5 | – | – | 0.19 µg/mL (≈ 0.428 µM) | – | –
Cc1cnc(NC(=O)c2cc(S(=O)(=O)N(C)C)ccc2N2CCCC2)s1 | 19.9 | – | – | 0.21 µg/mL (≈ 0.532 µM) | – | –
O=C(NCc1cccc(O)c1)Nc1nc(-c2ccncc2)cs1 | – | 97.6 mL/min/kg | 246 mL/min/kg | – | – | –
CN(C)c1ncc(CN2CCC(Cc3ccc(F)cc3)CC2)s1 | – | 43.1 mL/min/kg | 2570 mL/min/kg | – | – | –
N#CCCn1ncnc1-c1cccc(C#N)c1 | – | ≤ 4.74 mL/min/kg | ≤ 10.7 mL/min/kg | – | – | –
Cc1cc(Oc2cnccn2)ccc1N | – | ≤ 4.74 mL/min/kg | 31.2 mL/min/kg | 21.9 µg/mL (≈ 109 µM) | – | –
O[C@@H]1CO[C@H]2C[C@@H]1Nc1c(-c3ccccc3)cccc12 | 0.599 | 15 mL/min/kg | 367 mL/min/kg | 17 µg/mL (≈ 63.6 µM) | – | –
CCCn1cc(C(=O)N2CCC(c3n[nH]cc3C(=O)N3CCOCC3)CC2)cn1 | 15.3 | ≤ 4.74 mL/min/kg | 11.4 mL/min/kg | 54.1 µg/mL (≈ 135 µM) | – | –
Cn1c(=O)n(C2CCCC2)c(=O)c2c(F)cccc21 | 0.69 | 23.3 mL/min/kg | 415 mL/min/kg | 26 µg/mL (≈ 99 µM) | – | –
Clc1cccc(-c2nnc(Cn3cnc4ccccc43)o2)c1 | 0.866 | 7.23 mL/min/kg | 122 mL/min/kg | 27.4 µg/mL (≈ 88.2 µM) | – | –
Cc1ccsc1-c1nc(CN(C)CCc2cn[nH]c2)c(C)o1 | – | 185 mL/min/kg | 1210 mL/min/kg | 55.7 µg/mL (≈ 176 µM) | – | –
COc1ccc(Cl)cc1-c1cccc(C(=O)NCCN2CCCC2=O)c1 | 6.01 | 106 mL/min/kg | 875 mL/min/kg | – | – | –
CN1CCC(C(=O)N2CCC(c3cc(C(F)(F)F)c4c(n3)CCNC4=O)CC2)CC1 | 5.17 | ≤ 4.74 mL/min/kg | 11 mL/min/kg | 52.3 µg/mL (≈ 123 µM) | – | –
O=c1[nH]c2ccccc2n1C1CCN(Cc2nc(-c3cccs3)no2)CC1 | – | 11.4 mL/min/kg | 234 mL/min/kg | – | – | –
O=C(NCc1nncn1-c1ccccc1)C1CCCC1 | 20.8 | ≤ 4.74 mL/min/kg | 12.2 mL/min/kg | 43.3 µg/mL (≈ 160 µM) | – | –
O=C(CSc1nc2nc(O)cc(O)c2s1)c1ccc(-c2ccccc2)cc1 | 0.876 | 139 mL/min/kg | 128 mL/min/kg | 7 µg/mL (≈ 17.7 µM) | – | –
COc1ccc(CNC(=O)CCCOc2ccc(C(C)=O)cc2)cc1 | 1.02 | 34.5 mL/min/kg | 644 mL/min/kg | 20.2 µg/mL (≈ 59.2 µM) | – | –
COC(=O)[C@@H]1Cc2ncn(Cc3ccccc3)c2CN1C(C)=O | 17.6 | 6.26 mL/min/kg | 97.3 mL/min/kg | 32.2 µg/mL (≈ 103 µM) | – | –
Cc1occc1C(=O)NCC(=O)Nc1nc2cc(Cl)ccc2n1C | 1.31 | 9.49 mL/min/kg | 195 mL/min/kg | 27.2 µg/mL (≈ 78.4 µM) | – | –
Nc1c(C(=O)NCC2CCCO2)sc(=S)n1-c1ccc(Cl)cc1 (centres undefined) | – | 35.3 mL/min/kg | 92.3 mL/min/kg | – | – | –

SMILES | MDR1-MDCK efflux ratio | intrinsic clearance, human liver microsomes | intrinsic clearance, rat liver microsomes | aqueous solubility | fraction unbound, human plasma | fraction unbound, rat plasma
CC(C)CCN1CCc2nc3cc(C4CC4)nn3c(O)c2C1 | 9.05 | 7.62 mL/min/kg | 30.3 mL/min/kg | – | – | –
CC(C)(C)C(=O)N1CCC(CN2C(=O)C(=O)N(C3CCCC3)C2=O)CC1 | 2.03 | 22.1 mL/min/kg | 288 mL/min/kg | 66.8 µg/mL (≈ 184 µM) | – | –
CN1CCN(C2=c3ccccc3=Nc3ccc(Cl)cc3N2)CC1 | 0.8 | – | – | 58.2 µg/mL (≈ 178 µM) | – | –
Clc1ccccc1CNCc1ccc2c(c1)OCCO2 | 0.443 | 479 mL/min/kg | 2170 mL/min/kg | 24.5 µg/mL (≈ 84.6 µM) | – | –
Cc1sc2ncn(Cc3c(F)cccc3Cl)c(=O)c2c1C | – | 80 mL/min/kg | 757 mL/min/kg | – | – | –
CSc1nnc(CCCNc2cc(C)ccn2)n1C1CCCC1 | 18.2 | 138 mL/min/kg | 3220 mL/min/kg | – | – | –
Cc1noc(-c2ccccc2C(=O)O)n1 | – | ≤ 4.74 mL/min/kg | ≤ 10.7 mL/min/kg | 35.3 µg/mL (≈ 173 µM) | – | –
Cc1nc(-c2cccc(C(N)=O)c2)sc1-c1ccc(F)cc1 | – | 18.1 mL/min/kg | 394 mL/min/kg | – | – | –
O=C(NCc1cnn(-c2ccccc2)c1)C1CCC1 | 0.723 | ≤ 4.74 mL/min/kg | 117 mL/min/kg | 31.7 µg/mL (≈ 124 µM) | – | –
CSc1ccc(-c2ccc3n(c2=O)C[C@H]2C[C@@H]3CN(C(=O)c3ccncc3)C2)cc1 | 44 | 54 mL/min/kg | 357 mL/min/kg | 37.5 µg/mL (≈ 89.8 µM) | – | –
COCc1ccccc1CNc1ccc2nnc(-c3ccccc3)n2n1 | 9.33 | 101 mL/min/kg | 417 mL/min/kg | 2.8 µg/mL (≈ 8.11 µM) | – | –
Cc1nn(C)c(C)c1CCC(=O)N1CCCc2ncccc21 | 22.7 | 79.9 mL/min/kg | 449 mL/min/kg | 54.2 µg/mL (≈ 182 µM) | – | –
CN(CCSc1ccc2nnc(C(F)F)n2n1)Cc1ccccc1 | 0.653 | 246 mL/min/kg | 3180 mL/min/kg | – | – | –
O=C(NCCc1cnn(-c2ccccc2)c1)N1CCC1 | 1.34 | ≤ 4.74 mL/min/kg | 54.8 mL/min/kg | 39.6 µg/mL (≈ 146 µM) | – | –
Cc1cnn(CCNC(=O)C2(Cn3cccn3)CC2)c1 | 6.11 | 10.2 mL/min/kg | 108 mL/min/kg | – | – | –
Cc1c(-c2c(F)cc(C(N)=O)c3[nH]c4c(c23)CC[C@H](C(C)(C)O)C4)cccc1-n1c(=O)c2cccc(F)c2n(C)c1=O | 3.4 | 11.4 mL/min/kg | 43.4 mL/min/kg | 2.4 µg/mL (≈ 4.19 µM) | 0.0273 | 0.0212
Cc1ccc(S(=O)(=O)Nc2ccc3c(c2)c2c(n3S(=O)(=O)c3ccc(C)cc3)CCC2)cc1 | – | 230 mL/min/kg | 1490 mL/min/kg | – | – | –
COc1cc(OC)cc(N(CCNC(C)C)c2ccc3ncc(-c4cnn(C)c4)nc3c2)c1 | 106 | 17.6 mL/min/kg | 790 mL/min/kg | – | – | –
